Values quoted from earlier work, collected in publication PMC4562162 (CPT: Pharmacometrics & Systems Pharmacology, 2015).

System: CETP

CCC(CC)CC1(C(=O)Nc2ccccc2SC(=O)C(C)C)CCCCC1 [Dalcetrapib]
effect on LDL-C levels: minimal effects on LDL-C levels
